Holding throughout (assay type): cell-based
The target in assay [1] is T1, Gr21a/Gr63a CO2 receptor (Gr63a) (Drosophila melanogaster, UniProt Q9VPT1+Q9VZL7).
T1 construct: with Gr21a
T1 sequence (Q9VZL7 1-512): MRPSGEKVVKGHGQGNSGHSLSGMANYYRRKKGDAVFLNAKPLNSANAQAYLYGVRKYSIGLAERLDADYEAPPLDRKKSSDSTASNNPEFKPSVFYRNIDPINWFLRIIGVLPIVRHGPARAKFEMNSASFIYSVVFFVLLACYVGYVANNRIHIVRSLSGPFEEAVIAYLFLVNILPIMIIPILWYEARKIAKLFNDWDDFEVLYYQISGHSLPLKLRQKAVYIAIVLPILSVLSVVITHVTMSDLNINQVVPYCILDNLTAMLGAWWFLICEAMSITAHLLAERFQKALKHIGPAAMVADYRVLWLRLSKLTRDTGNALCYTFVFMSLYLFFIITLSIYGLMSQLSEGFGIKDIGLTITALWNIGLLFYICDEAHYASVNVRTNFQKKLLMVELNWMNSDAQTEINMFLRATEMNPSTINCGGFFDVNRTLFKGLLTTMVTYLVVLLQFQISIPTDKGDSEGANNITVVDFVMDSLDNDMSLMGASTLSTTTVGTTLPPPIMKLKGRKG
T1 sequence (Q9VPT1 1-447): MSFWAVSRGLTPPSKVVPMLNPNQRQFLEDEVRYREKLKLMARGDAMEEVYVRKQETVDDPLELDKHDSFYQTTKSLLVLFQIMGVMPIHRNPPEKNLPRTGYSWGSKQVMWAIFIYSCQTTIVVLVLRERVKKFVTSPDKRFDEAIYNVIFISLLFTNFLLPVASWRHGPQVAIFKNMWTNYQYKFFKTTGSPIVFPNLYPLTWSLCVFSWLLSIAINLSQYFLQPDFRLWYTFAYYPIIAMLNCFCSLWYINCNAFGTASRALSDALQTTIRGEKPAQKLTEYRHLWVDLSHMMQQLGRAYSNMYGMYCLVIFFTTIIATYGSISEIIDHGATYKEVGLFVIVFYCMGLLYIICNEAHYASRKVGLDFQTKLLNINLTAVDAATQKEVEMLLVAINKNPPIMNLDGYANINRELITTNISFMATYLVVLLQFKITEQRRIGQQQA
Kind of assay: two-electrode voltage clamp, Xenopus oocytes, block of NaHCO3 current at […]. (In two-electrode clamp one electrode senses voltage and the other passes current.)

For assay [2], the target named is T1, Gr21a/Gr63a CO2 receptor (Gr63a). Kind of assay: two-electrode voltage clamp, Xenopus oocytes, block of […] NaHCO3 current.
Assay [3] has the same target. Description: two-electrode voltage clamp, Xenopus oocytes, agonist current at […]. The following applies: read-out: % of 200 mM NHC response at 10 mM.

What is called IC50 is the concentration that inhibits the measured activity by half. The low end stands for higher potency, the high end for lower potency.

Regarding `CCCCCCCCO` [1-octanol], the “two-electrode voltage clamp, Xenopus oocytes, block of NaHCO3 current at 10 mM” value (“two-electrode voltage clamp” for short) in assay [1] was “Gr21/Gr63 were significantly inhibited by 1-octanol, isobutyraldehyde, 1-hexanol”.

Molecule `CC(C)=CCCC(C)CCO` (stereo not drawn) [citronellol] came in with a half-inhibitory concentration (IC50) in assay [2] of 5.1 ± 0.25 mM.

For `CC(C)C=O` [isobutyraldehyde], the “two-electrode voltage clamp” value in assay [1] is listed as “Gr21/Gr63 were significantly inhibited by 1-octanol, isobutyraldehyde, 1-hexanol”.

As for `COC(=O)C(C)=O` [methyl pyruvate], the activation at 10000 µM in assay [3] stood at 29 ± 8%.

As to `CCCCCCN` [n-hexylamine], the activation at 10000 µM in assay [3] turned out to be 64 ± 17%.

In the case of `CCCCCCO` [1-hexanol], in assay [1], the “two-electrode voltage clamp” value was “Gr21/Gr63 were significantly inhibited by 1-octanol, isobutyraldehyde, 1-hexanol”.
